Data published in patent publication US6632829B2, “Sulfonamides and derivatives thereof that modulate the activity of endothelin” (Texas Biotechnology Corp., priority 1996, dated 2003).
Values joined by “and” are separate entries in the source; they are usually repeats but may differ in a detail not shown here. Identical values can stand only once. Counter-ions that a name gives are not always drawn.

Experiments:
[1] = biological target: T1, human ETA receptors (Homo sapiens, UniProt P25101); assay: Endothelin binding inhibition, Binding Test #1: competition with 125I-ET-1 for ETA receptors on TE 671 cell membranes; settings: incubation at 24° C. (values marked †)
T1 construct: endogenous in cells; host or cells: TE 671 cells (ATCC HTB 139), membrane preparation
T1 sequence (P25101 21-427): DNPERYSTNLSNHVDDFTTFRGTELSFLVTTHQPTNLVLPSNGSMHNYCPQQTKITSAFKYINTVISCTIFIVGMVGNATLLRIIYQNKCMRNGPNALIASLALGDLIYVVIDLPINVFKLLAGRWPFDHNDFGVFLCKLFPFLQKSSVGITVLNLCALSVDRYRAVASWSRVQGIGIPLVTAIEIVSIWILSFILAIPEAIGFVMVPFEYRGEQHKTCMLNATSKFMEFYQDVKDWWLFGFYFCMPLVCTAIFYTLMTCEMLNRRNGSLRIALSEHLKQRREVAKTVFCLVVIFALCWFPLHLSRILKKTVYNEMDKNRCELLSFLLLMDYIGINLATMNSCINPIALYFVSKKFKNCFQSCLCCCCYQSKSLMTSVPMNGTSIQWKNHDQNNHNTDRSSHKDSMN
Description: (§1) Cells from multiple flasks were collected by scraping, pooled and centrifuged for 10 min at 190×g. The cells were resuspended in phosphate buffered saline (PBS) containing 10 mM EDTA using a Tenbroeck homogenizer. The suspension was centrifuged at 4° C. at 57,800×g for 15 min, the pellet was resuspended in 5 mL of buffer A (5 mM HEPES buffer, pH 7.4 containing aprotinin (100 KIU/mL)) and then frozen and thawed once. 5 mL of Buffer B (5 mM HEPES Buffer, pH 7.4 containing 10 mM MnCl2 and 0.001% deoxyribonuclease Type 1) was added, the suspension mixed by inversion and then incubated at 37° C. for 30 minutes. The mixture was centrifuged at 57,800×g as described above, the pellet washed twice with buffer A and then resuspended in buffer C (30 mM HEPES buffer, pH 7.4 containing aprotinin (100 KIU/mL) to give a final protein concentration of 2 mg/mL and stored at −70° C. until use.
The membrane suspension (50 μL), containing up to 8 μg of membrane protein, was added to each of (A), (B), or (C). […] Alternatively, the incubation was conducted at 24° C.
The supernatant, containing unbound radioactivity, was decanted and the pellet counted on a Genesys multiwell gamma counter. The degree of inhibition of binding (D) was calculated according to the following equation: [formula]
Each test was generally performed in triplicate.

[2] = biological target: T2, human ETB receptor (Homo sapiens, UniProt P24530); assay: Endothelin binding inhibition, Binding Test #2: competition with 125I-ET-1 for ETB receptors on transfected COS7 cell membranes; settings: for IC50: incubation at 24° C. (values marked †); for inhibition at 100 µM: read-out: ETB % inhibition @ 100 μM, @ 100 μM, incubation at 24° C.
T2 construct: expressed in transfected cells; host or cells: COS7 cells
T2 sequence (P24530 27-442): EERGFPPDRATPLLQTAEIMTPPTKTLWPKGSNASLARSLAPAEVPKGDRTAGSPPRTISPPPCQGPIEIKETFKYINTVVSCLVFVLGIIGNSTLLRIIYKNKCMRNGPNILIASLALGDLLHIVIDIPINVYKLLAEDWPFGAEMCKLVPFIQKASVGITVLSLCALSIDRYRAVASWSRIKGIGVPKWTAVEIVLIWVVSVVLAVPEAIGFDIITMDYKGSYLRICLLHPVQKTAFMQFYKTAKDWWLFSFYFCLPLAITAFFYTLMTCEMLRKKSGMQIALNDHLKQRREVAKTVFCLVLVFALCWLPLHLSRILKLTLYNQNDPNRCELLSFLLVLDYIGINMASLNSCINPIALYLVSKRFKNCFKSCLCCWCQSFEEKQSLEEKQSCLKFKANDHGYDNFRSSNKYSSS
Excerpt: Compounds that are potential endothelin antagonists are identified by testing their ability to compete with ^125I-labeled ET-1 for binding to human ETA receptors or ETB receptors present on isolated cell membranes. The effectiveness of the test compound as an antagonist or agonist of the biological tissue response of endothelin can also be assessed by measuring the effect on endothelin induced contraction of isolated rat thoracic aortic rings. The ability of the compounds to act as antagonists or agonists for ETB receptors can be assess by testing the ability of the compounds are to inhibit endothelin-1 induced prostacyclin release from cultured bovine aortic endothelial cells.
COS7 cells were transfected with DNA encoding the ETB receptor, The resulting cells, which express the human ETB receptor, were grown to confluence in T-150 flasks. Membrane was prepared as described above. The binding assay was performed as described above using the membrane preparation diluted with binding buffer to a concentration of 1 μg/50 μL.
as §1, with “Briefly, the COS7 cells, described above, that had been transfected with DNA encoding the ETB receptor and express the human ETB receptor on their surfaces were grown to confluence in T-175 flasks. Cells” for “Cells”, “C.” for “C. at”, “once. Five” for “once. 5”, “2 mg/mL.” for “2 mg/mL and stored at −70° C. until use.”
The binding assay was performed as described above using the membrane preparation diluted to give 1 μg/50 μL of binding buffer.

Row | SMILES | IC50 [1] | IC50 [2] [µM] | inhibition at 100 µM [2] [%]
1 | Cc1cc(CC(C)C)ccc1-c1ccsc1S(=O)(=O)Nc1onc(C)c1Br [N-(4-bromo-3-methyl-5-isoxazolyl)-3-(4-iso-butyl-2-methylphenyl)thiophene-2-sulfonamide] | 0.0468 µM | 1.66 | 
2 | Cc1ccc(OC(=O)c2sccc2S(=O)(=O)Nc2onc(C)c2Br)cc1 [N-(4-bromo-3-methyl-5-isoxazolyl)-2-[(4-methylphenoxy)carbonyl]thiophene-3-sulfonamide] |  | 9.7 | 
3 | CC(=O)OCc1c(C)cc(C)c(NC(=O)c2sccc2S(=O)(=O)Nc2onc(C)c2C)c1C [N-(3,4-dimethyl-5-isoxazolyl)-2-(3-acetoxymethyl-2,4,6-trimethylphenylaminocarbonyl)thiophene-3-sulfonamide] | 0.00097 µM | 156 | 
4 | COc1ccccc1OC(=O)c1sccc1S(=O)(=O)Nc1onc(C)c1Br [N-(4-bromo-3-methyl-5-isoxazolyl)-2-[(2-methoxylphenoxy)carbonyl]thiophene-3-sulfonamide] | 0.761 µM |  | 29
5 | Cc1ccccc1-c1ccsc1S(=O)(=O)Nc1onc(C)c1Br [N-(4-bromo-3-methyl-5-isoxazolyl)-3-(2-tolyl)thiophene-2-sulfonamide] | 0.324 µM and 0.302 µM | 55.1 | 31
6 | COC(=O)c1cc(OC)c(OC)cc1NC(=O)c1sccc1S(=O)(=O)Nc1onc(C)c1Cl [N-(4-chloro-3-methyl-5-isoxazolyl)-2-[(4,5-dimethoxy-2-methoxycarbonylphenyl)aminocarbonyl]thiophene-3-sulfonamide] | 0.55 µM |  | 
7 | Cc1noc(NS(=O)(=O)c2ccsc2C(=O)c2ccc3c(c2)OCO3)c1Br [N-(4-bromo-3-methyl-5-isoxazolyl)-2-[(3,4-methylenedioxy)benzoyl]thiophene-3-sulfonamide] |  | 15 | 
8 | Cc1cc(C)c(NC(=O)c2sccc2S(=O)(=O)Nc2onc(C)c2Cl)c(C(N)=O)c1 [N-(4-chloro-3-methyl-5-isoxazolyl)-2-(2-carbamoyl-4,6-dimethylphenylaminocarbonyl)thiophene-3-sulfonamide] |  | 11.9 | 
9 | COc1cccc(-c2ccsc2S(=O)(=O)Nc2onc(C)c2Br)c1 [N-(4-bromo-3-methyl-5-isoxazolyl)-3-(3-methoxyphenyl)thiophene-2-sulfonamide] | 0.334 µM |  | 
10 | Cc1cc2c(cc1C(C)C(=O)c1sccc1S(=O)(=O)Nc1onc(C)c1Cl)OCO2 (stereo not drawn) [N-(4-chloro-3-methyl-5-isoxazolyl)-2-(α-methyl-2-methyl-4,5-(methylenedioxy)phenylacetyl)thiophene-3-sulfonamide] | 0.0853 µM |  | 
11 | Cc1noc(NS(=O)(=O)c2ccsc2C(N)=O)c1Br [N-(4-bromo-3-methyl-5-isoxazolyl)-2-(aminocarbonyl)thiophene-3-sulfonamide] | 0.84 µM |  | 
12 | Cc1cc(C)c(CNC(=O)c2sccc2S(=O)(=O)Nc2onc(C)c2Cl)c(C)c1 [N-(4-chloro-3-methyl-5-isoxazolyl)-2-(2,4,6-trimethylbenzylaminocarbonyl)thiophene-3-sulfonamide] |  | 69.2 | 
13 | Cc1nnc(NC(=O)c2sccc2S(=O)(=O)Nc2onc(C)c2Cl)s1 [N-(4-chloro-3-methyl-5-isoxazolyl)-2-[(2-methyl-1,3,4-thiadiazol-5-yl)aminocarbonyl]thiophene-3-sulfonamide] | 0.13 µM |  | 
14 | CC(=O)c1cc2c(cc1NC(=O)c1sccc1S(=O)(=O)Nc1onc(C)c1Cl)OCO2 [N-(4-chloro-3-methyl-5-isoxazolyl)2-{[2-acetyl-4,5-(methylenedioxy)phenyl]aminocarbonyl}thiophene-3-sulfonamide] |  | 31.6 | 
15 | Cc1noc(NS(=O)(=O)c2ccsc2COc2ccc3c(c2)OCO3)c1Br [N-(4-bromo-3-methyl-5-isoxazolyl)-2-{[3,4-(methylenedioxy)phenoxy]methyl}thiophene-3-sulfonamide] |  | 6.61 | 
16 | Cc1cc(C)c(NC(=O)c2sccc2S(=O)(=O)Nc2onc(C)c2Cl)c(C)c1CN(C)C [N-(4-chloro-3-methyl-5-isoxazolyl)-2-(3-dimethylaminomethyl-2,4,6-trimethylphenylaminocarbonyl)thiophene-3-sulfonamide, trifluoroacetic acid salt] | 0.0134 µM |  | 

The next lines start with the values.

Row | IC50 [1] | IC50 [2] [µM] | inhibition at 100 µM [2] [%] | SMILES
17 | ~0.1 µM | ~5 |  | Cc1cc2c(cc1CCc1ccsc1S(=O)(=O)Nc1onc(C)c1Br)OCO2 [N-(4-bromo-3-methyl-5-isoxazolyl)-3-[2-methyl-4,5-(methylenedioxy)phenethyl]thiophene-2-sulfonamide]
18 | 1.37 µM |  |  | Cc1noc(NS(=O)(=O)c2ccsc2C(=O)OC2CCOCC2)c1Cl [N-(4-chloro-3-methyl-5-isoxazolyl)-2-[(4-oxacyclohexyl)oxycarbonyl]thiophene-3-sulfonamide]
19 | 0.006 µM |  |  | Cc1ccc(NC(=O)c2sccc2S(=O)(=O)Nc2onc(C)c2Cl)c(O)c1 [N-(4-chloro-3-methyl-5-isoxazolyl)-2-[2-hydroxy-4-methylphenyl)aminocarbonyl]thiophene-3-sulfonamide]
20 | 5.88 µM and 2.5 µM |  |  | COc1ccc(OC(=O)c2sccc2S(=O)(=O)Nc2onc(C)c2C)cc1 [N-(3,4-dimethyl-5-isoxazolyl)-2-[(4-methoxylphenoxy)carbonyl]thiophene-3-sulfonamide]
21 |  | > 50 |  | Cc1noc(NS(=O)(=O)c2ccsc2C(=O)Oc2ccc3c(c2)OCO3)c1C [N-(3,4-dimethyl-5-isoxazolyl)-2-[3,4-(methylenedioxy)phenoxycarbonyl]thiophene-3-sulfonamide]
22 | 0.032 µM |  |  | CC(=O)c1cc2c(cc1NC(=O)c1sccc1S(=O)(=O)Nc1onc(C)c1C)OCO2 [N-(3,4-dimethyl-5-isoxazolyl)-2-{[2-acetyl-4,5-(methylenedioxy)phenyl]aminocarbonyl}thiophene-3-sulfonamide]
23 | 0.0811 µM |  |  | Cc1cc2c(cc1C(CC(=O)O)C(=O)c1sccc1S(=O)(=O)Nc1onc(C)c1Cl)OCO2 (stereo not drawn) [N-(4-chloro-3-methyl-5-isoxazolyl)-2-(α-carboxylmethyl-2-methyl-4,5-(methylenedioxy)phenylacetyl)thiophene-3-sulfonamide]
24 | 1.43 µM |  |  | Cc1noc(NS(=O)(=O)c2ccsc2C(=O)Nc2cc3c(cc2C(=O)O)OCO3)c1Cl [N-(4-chloro-3-methyl-5-isoxazolyl)2-{[2-carboxyl-4,5-(methylenedioxy)phenyl]aminocarbonyl}thiophene-3-sulfonamide]
25 | 0.21 µM |  |  | Cc1noc(NS(=O)(=O)c2ccsc2CCc2ccc3c(c2)OCO3)c1Br [N-(4-bromo-3-methyl-5-isoxazolyl)-2-[(3,4-methylenedioxy)phenethyl]thiophene-3-sulfonamide]
